pIC50: −log10 of the molar value. Where a name gives a salt, the structure may show the parent alone.
test system: KMS.12.BM cells; experiment: KMS.12.BM cell viability assay; type: cell-based; settings: 72 h; KMS.12.BM human myeloma cells, 3 days, Cell Titer-GLO ATP quantitation; read-out: KMS cellular IC50
In short: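 IC50 derived from luminescent ATP quantitation (Cell Titer-GLO) of viable cells after 3-day compound treatment. KMS.12.BM human myeloma line seeded at 5000 cells/well in RPMI with 10% FBS.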

**Q.** With `Cc1cc2c(cc(NC3CCN(S(C)(=O)=O)CC3)c3nnc(C)n32)n1Cc1ccccc1` [Example 211, 6-Benzyl-1,7-dimethyl-N-[1-(methylsulfonyl)piperidin-4-yl]-6H-pyrrolo[2,3-e][1,2,4]triazolo[4,3-a]pyridin-4-amine] as the compound, how does the pIC50 read?
**A.** ≥ 6.00

**Q.** `CCN1CCC(Nc2cc3c(cc(C)n3Cc3ccccc3)n3c(C)nnc23)CC1` [Example 212, 6-Benzyl-N-(1-ethylpiperidin-4-yl)-1,7-dimethyl-6H-pyrrolo[2,3-e][1,2,4]triazolo[4,3-a]pyridin-4-amine] was tested. Which pIC50 did it give?
**A.** ≥ 6.00

**Q.** How did the pIC50 turn out when `Cc1cc2c(cc(NC3CCN(C(C)C)CC3)c3nnc(C)n32)n1Cc1ccccc1` [Example 213, 6-Benzyl-N-(1-isopropylpiperidin-4-yl)-1,7-dimethyl-6H-pyrrolo[2,3-e][1,2,4]triazolo[4,3-a]pyridin-4-amine] was run?
**A.** ≥ 6.00

**Q.** `Cc1cc2c(cc(NC3CCN(C(=O)OC(C)(C)C)CC3)c3nnc(C)n32)n1Cc1ccccc1` [Example 214, tert-Butyl 4-[(6-benzyl-1,7-dimethyl-6H-pyrrolo[2,3-e][1,2,4]triazolo[4,3-a]pyridin-4-yl)amino]piperidine-1-carboxylate] was tested. Which pIC50 did it give?
**A.** 5.00 to 6.00

**Q.** How did the pIC50 turn out when `CC(=O)N1CCC(Nc2cc3c(cc(C)n3Cc3ccccc3)n3c(C)nnc23)CC1` [Example 216, N-(1-Acetylpiperidin-4-yl)-6-benzyl-1,7-dimethyl-6H-pyrrolo[2,3-e][1,2,4]triazolo[4,3-a]pyridin-4-amine] was run?
**A.** 5.00 to 6.00

**Q.** `Cc1cc2c(cc(N[C@H]3CC[C@H](N)CC3)c3nnc(C)n32)n1Cc1ccccc1` [Example 217, trans-N-(6-Benzyl-1,7-dimethyl-6H-pyrrolo[2,3-e][1,2,4]triazolo[4,3-a]pyridin-4-yl)cyclohexane-1,4-diamine] was tested. Which pIC50 did it give?
**A.** ≥ 6.00

**Q.** With `Cc1cc2c(cc(N[C@H]3CC[C@@H](N)CC3)c3nnc(C)n32)n1Cc1ccccc1` [Example 218, cis-N-(6-Benzyl-1,7-dimethyl-6H-pyrrolo[2,3-e][1,2,4]triazolo[4,3-a]pyridin-4-yl)cyclohexane-1,4-diamine] as the compound, how does the pIC50 read?
**A.** 5.00 to 6.00

**Q.** With `CN[C@H]1CC[C@H](Nc2cc3c(cc(C)n3Cc3ccccc3)n3c(C)nnc23)CC1` [Example 219, trans-N-(6-Benzyl-1,7-dimethyl-6H-pyrrolo[2,3-e][1,2,4]triazolo[4,3-a]pyridin-4-yl)-N′-methylcyclohexane-1,4-diamine] as the compound, how does the pIC50 read?
**A.** ≥ 6.00

**Q.** How did the pIC50 turn out when `Cc1cc2c(cc(N[C@H]3CC[C@H](N(C)C)CC3)c3nnc(C)n32)n1Cc1ccccc1` [Example 220, trans-N′-(6-Benzyl-1,7-dimethyl-6H-pyrrolo[2,3-e][1,2,4]triazolo[4,3-a]pyridin-4-yl)-N,N-dimethylcyclohexane-1,4-diamine] was run?
**A.** 5.00 to 6.00

**Q.** `CN[C@H]1CC[C@@H](Nc2cc3c(cc(C)n3Cc3ccccc3)n3c(C)nnc23)CC1` [Example 221, cis-N-(6-Benzyl-1,7-dimethyl-6H-pyrrolo[2,3-e][1,2,4]triazolo[4,3-a]pyridin-4-yl)-N′-methylcyclohexane-1,4-diamine] was tested. Which pIC50 did it give?
**A.** 5.00 to 6.00

**Q.** How did the pIC50 turn out when `Cc1cc2c(cc(N[C@H]3CC[C@@H](N(C)C)CC3)c3nnc(C)n32)n1Cc1ccccc1` [Example 222, cis-N′-(6-Benzyl-1,7-dimethyl-6H-pyrrolo[2,3-e][1,2,4]triazolo[4,3-a]pyridin-4-yl)-N,N-dimethylcyclohexane-1,4-diamine] was run?
**A.** 5.00 to 6.00

**Q.** `Cc1nnc2ccc3c(cc(C#N)n3Cc3ccccc3)n12` [Example 227, 6-Benzyl-1-methyl-6H-pyrrolo[2,3-e][1,2,4]triazolo[4,3-a]pyridine-7-carbonitrile trifluoroacetate salt] was tested. Which pIC50 did it give?
**A.** ≥ 6.00

**Q.** How did the pIC50 turn out when `Cc1cc2c(cc(NCC3CC3)c3nnc(C)n32)n1Cc1ccccc1` [Example 228, 6-Benzyl-N-(cyclopropylmethyl)-1,7-dimethyl-6H-pyrrolo[2,3-e][1,2,4]triazolo[4,3-a]pyridin-4-amine] was run?
**A.** 5.00 to 6.00

**Q.** How did the pIC50 turn out when `CNC(=O)Nc1cc2c(cc(C)n2Cc2ccccc2)n2c(C)nnc12` [Example 229, 1-(6-Benzyl-1,7-dimethyl-6H-pyrrolo[2,3-e][1,2,4]triazolo[4,3-a]pyridin-4-yl)-3-methylurea] was run?
**A.** ≥ 6.00

**Q.** `Cc1cc2c(cc(NC(N)=O)c3nnc(C)n32)n1Cc1cccc(C(F)(F)F)c1` [Example 230, 1-(1,7-Dimethyl-6-(3-(trifluoromethyl)benzyl)-6H-pyrrolo[2,3-e][1,2,4]triazolo[4,3-a]pyridin-4-yl)urea] was tested. Which pIC50 did it give?
**A.** ≥ 6.00

**Q.** With `Cc1cc2c(cc(NC(N)=O)c3nnc(C)n32)n1Cc1cccc(Cl)c1` [Example 231, 1-(6-(3-Chlorobenzyl)-1,7-dimethyl-6H-pyrrolo[2,3-e][1,2,4]triazolo[4,3-a]pyridin-4-yl)urea] as the compound, how does the pIC50 read?
**A.** ≥ 6.00

**Q.** With `Cc1cc2c(cc(NC(N)=O)c3nnc(C)n32)n1Cc1cc(F)cc(F)c1` [Example 233, 1-(6-(3,5-Difluorobenzyl)-1,7-dimethyl-6H-pyrrolo[2,3-e][1,2,4]triazolo[4,3-a]pyridin-4-yl)urea] as the compound, how does the pIC50 read?
**A.** ≥ 6.00

**Q.** `Cc1cc2c(cc(NC(N)=O)c3nnc(C)n32)n1Cc1ccc(F)c(F)c1` [Example 234, 1-(6-(3,4-Difluorobenzyl)-1,7-dimethyl-6H-pyrrolo[2,3-e][1,2,4]triazolo[4,3-a]pyridin-4-yl)urea] was tested. Which pIC50 did it give?
**A.** ≥ 6.00

**Q.** How did the pIC50 turn out when `Cc1cc2c(cc(NC(N)=O)c3nnc(C)n32)n1Cc1cccc(F)c1` [Example 235, 1-(6-(3-Fluorobenzyl)-1,7-dimethyl-6H-pyrrolo[2,3-e][1,2,4]triazolo[4,3-a]pyridin-4-yl)urea] was run?
**A.** ≥ 6.00

**Q.** With `Cc1cc2c(cc(NC(N)=O)c3nnc(C)n32)n1Cc1ccc(F)cc1F` [Example 236, 1-(6-(2,4-Difluorobenzyl)-1,7-dimethyl-6H-pyrrolo[2,3-e][1,2,4]triazolo[4,3-a]pyridin-4-yl)urea] as the compound, how does the pIC50 read?
**A.** ≥ 6.00

**Q.** `Cc1cc2c(cc(NC(N)=O)c3nnc(C)n32)n1Cc1cccc(F)c1F` [Example 237, 1-(6-(2,3-Difluorobenzyl)-1,7-dimethyl-6H-pyrrolo[2,3-e][1,2,4]triazolo[4,3-a]pyridin-4-yl)urea] was tested. Which pIC50 did it give?
**A.** ≥ 6.00

**Q.** How did the pIC50 turn out when `Cc1cc2c(cc(NC(N)=O)c3nnc(C)n32)n1Cc1ccccc1F` [Example 238, 1-(6-(2-Fluorobenzyl)-1,7-dimethyl-6H-pyrrolo[2,3-e][1,2,4]triazolo[4,3-a]pyridin-4-yl)urea] was run?
**A.** 5.00 to 6.00

**Q.** With `Cc1cc2c(cc(NC(N)=O)c3nnc(C)n32)n1Cc1ccc(F)cc1` [Example 239, 1-(6-(4-Fluorobenzyl)-1,7-dimethyl-6H-pyrrolo[2,3-e][1,2,4]triazolo[4,3-a]pyridin-4-yl)urea] as the compound, how does the pIC50 read?
**A.** ≥ 6.00

**Q.** `Cc1cc2c(cc(Nc3ccccn3)c3nnc(C)n32)n1Cc1ccccc1` [Example 240, 6-benzyl-1,7-Dimethyl-N-(pyridin-2-yl)-6H-pyrrolo[2,3-e][1,2,4]triazolo[4,3-a]pyridin-4-amine] was tested. Which pIC50 did it give?
**A.** 5.00 to 6.00

**Q.** `Cc1cc2c(cc(NCC3CCC3)c3nnc(C)n32)n1Cc1ccccc1` [Example 241, 6-Benzyl-N-(cyclobutylmethyl)-1,7-dimethyl-6H-pyrrolo[2,3-e][1,2,4]triazolo[4,3-a]pyridin-4-amine] was tested. Which pIC50 did it give?
**A.** 5.00 to 6.00

**Q.** `Cc1cc2c(cc(NCC3CN(C(=O)OC(C)(C)C)C3)c3nnc(C)n32)n1Cc1ccccc1` [Example 243, tert-Butyl 3-((6-benzyl-1,7-dimethyl-6H-pyrrolo[2,3-e][1,2,4]triazolo[4,3-a]pyridin-4-ylamino)methyl)azetidine-1-carboxylate] was tested. Which pIC50 did it give?
**A.** 5.00 to 6.00

**Q.** `Cc1cc2c(cc(NC3CN(C(=O)OC(C)(C)C)C3)c3nnc(C)n32)n1Cc1ccccc1` [Example 244, tert-Butyl 3-(6-benzyl-1,7-dimethyl-6H-pyrrolo[2,3-e][1,2,4]triazolo[4,3-a]pyridin-4-ylamino)azetidine-1-carboxylate] was tested. Which pIC50 did it give?
**A.** ≥ 6.00

**Q.** How did the pIC50 turn out when `Cc1cc2c(cc(NCCCN(C)C)c3nnc(C)n32)n1Cc1ccccc1` [Example 245, N1-(6-Benzyl-1,7-dimethyl-6H-pyrrolo[2,3-e][1,2,4]triazolo[4,3-a]pyridin-4-yl)-N3,N3-dimethylpropane-1,3-diamine] was run?
**A.** ≥ 6.00

**Q.** `Cc1cc2c(cc(NCCN(C)C)c3nnc(C)n32)n1Cc1ccccc1` [Example 246, N1-(6-Benzyl-1,7-dimethyl-6H-pyrrolo[2,3-e][1,2,4]triazolo[4,3-a]pyridin-4-yl)-N2,N2-dimethylethane-1,2-diamine] was tested. Which pIC50 did it give?
**A.** ≥ 6.00

**Q.** How did the pIC50 turn out when `Cc1cc2c(cc(N[C@H]3C[C@H](O)C3)c3nnc(C)n32)n1Cc1ccccc1` [Example 247, trans-3-(6-Benzyl-1,7-dimethyl-6H-pyrrolo[2,3-e][1,2,4]triazolo[4,3-a]pyridin-4-ylamino)cyclobutanol] was run?
**A.** ≥ 6.00

**Q.** With `Cc1cc2c(cc(NC(=O)OC(C)(C)C)c3nnc(C)n32)n1Cc1ccccc1` [Example 248, tert-Butyl 6-benzyl-1,7-dimethyl-6H-pyrrolo[2,3-e][1,2,4]triazolo[4,3-a]pyridin-4-ylcarbamate] as the compound, how does the pIC50 read?
**A.** ≥ 6.00

**Q.** With `CCNC(=O)Nc1cc2c(cc(C)n2Cc2ccccc2)n2c(C)nnc12` [Example 249, 1-(6-Benzyl-1,7-dimethyl-6H-pyrrolo[2,3-e][1,2,4]triazolo[4,3-a]pyridin-4-yl)-3-ethylurea] as the compound, how does the pIC50 read?
**A.** ≥ 6.00

**Q.** With `Cc1cc2c(cc(NC(=O)NC(C)C)c3nnc(C)n32)n1Cc1ccccc1` [Example 250, 1-(6-Benzyl-1,7-dimethyl-6H-pyrrolo[2,3-e][1,2,4]triazolo[4,3-a]pyridin-4-yl)-3-isopropylurea] as the compound, how does the pIC50 read?
**A.** ≥ 6.00

**Q.** How did the pIC50 turn out when `Cc1cc2c(cc(NC(=O)N(C)C)c3nnc(C)n32)n1Cc1ccccc1` [Example 251, 3-(6-Benzyl-1,7-dimethyl-6H-pyrrolo[2,3-e][1,2,4]triazolo[4,3-a]pyridin-4-yl)-1,1-dimethylurea] was run?
**A.** ≥ 6.00

**Q.** `Cc1cc2c(cc(NC(N)=O)c3nnc(C)n32)n1Cc1ccccc1` [Example 252, 1-(6-Benzyl-1,7-dimethyl-6H-pyrrolo[2,3-e][1,2,4]triazolo[4,3-a]pyridin-4-yl)urea] was tested. Which pIC50 did it give?
**A.** ≥ 6.00

**Q.** How did the pIC50 turn out when `Cc1cc2c(cc(Nc3ncc[nH]3)c3nnc(C)n32)n1Cc1ccccc1` [Example 253, 6-Benzyl-N-(1H-imidazol-2-yl)-1,7-dimethyl-6H-pyrrolo[2,3-e][1,2,4]triazolo[4,3-a]pyridin-4-amine] was run?
**A.** ≥ 6.00

Reference: patent US10442803B2, “Tricyclic heterocycles as bet protein inhibitors” (Incyte Corporation, priority 2013, dated 2019)
